Data reported in article PMC6262012, “IMB-T130 targets 3-dehydroquinate synthase and inhibits Mycobacterium tuberculosis” (Scientific Reports, 2018).
In brackets after ≈: the same amount, converted by molar mass. Read-outs that look alike come from different tables or passages of the source.

Assays:
[1] = tested on: M. tuberculosis H37Rv (ATCC27294) in J774A.1 mouse monocyte macrophages; test: Intracellular anti-TB activity in macrophages; type: cell-based, Mycobacterium tuberculosis; settings: for Log10CFU: 3 days, control 5.13 ± 0.03; for reduction in M. tuberculosis colony forming units (CFU): 3 days exposure
DHQS [2] = target: T1, DHQS (Mycobacterium tuberculosis, UniProt P9WPX9); test: HPLC-Q-TOF mass spectrometry of intact DHQS after incubation with IMB-T130; settings: suggests non-covalent binding
Protocol: In this study, HPLC-Q-TOF mass spectrometry was also performed to determine the molecular mass of the protein.

[3] = tested on: M. smegmatis strain overexpressing MtL12; test: MIC by plate dilution, M. smegmatis overexpressing MtL12; type: cell-based, Mycobacterium smegmatis; settings: Mycolicibacterium smegmatis
From the text: (§1) To overexpress the MtDHQS protein in M. smegmatis, we used the plasmid pMV261-eGFP. The DHQS gene was inserted between the promoter and eGFP gene using BamHI and HindIII restriction enzyme sites so that DHQS was in frame with eGFP. The resulting pMV261:DHQS-eGFP plasmid was transformed into competent M. smegmatis cells. Recombinant protein expression was confirmed by fluorescence microscopy and western blotting with an anti-eGFP antibody. The MICs of IMB-T130 against M. smegmatis with a control vector (pMV261-eGFP plasmid), strains overexpressing a non-related gene (MtL12), and strains overexpressing DHQS-eGFP were determined by the conventional plate dilution method.

DHQS [4] = target: T1, DHQS; test: Circular dichroism spectrum of DHQS and its complex with IMB-T130; type: binding
From the text: CD is widely used to examine protein structures in solution. In the far UV spectral region (180–240 nm), the CD spectrum reflects the absorption of peptide bonds, and provides some information about the secondary structural features of a protein[18]. We determined the CD spectrum of the native DHQS and the complex of DHQS and IMB-T130.

[5] = Oral tolerability in ICR mice; type: in vivo
Protocol: We speculated that the compound might have anti-TB activity in vivo. IMB-T130 was well tolerated in ICR mice at up to 500 mg/kg administered orally.

[6] = tested on: M. smegmatis strain overexpressing MtDHQS; test: MIC by plate dilution, M. smegmatis overexpressing MtDHQS; type: cell-based, Mycobacterium smegmatis; settings: for MIC: Overexpressing MtDHQS
From the text: as §1

[7] = tested on: M. smegmatis strain with control vector (PMV261 plasmid); test: MIC by plate dilution, M. smegmatis with control vector; type: cell-based, Mycobacterium smegmatis
From the text: as §1

[8] = Pharmacokinetic studies in rats; type: in vivo; settings: male, Sprague Dawley, rat; for half-life: plasma
Protocol: Pharmacokinetic parameters were determined after administration of single oral and intravenous (iv) doses of IMB-T130 at 20 and 5 mg/kg, respectively, in male Sprague Dawley rats.
Animal care and all experimental procedures were performed in accordance with local, national, and ethical principles and authority regulations, and were approved by the Institutional Animal Care and Use Committee of the Institute of Medicinal Biotechnology Institute. Sprague Dawley rats (226.5–261.2 g) were used in the pharmacokinetic studies. The formulation of IMB-T130 (4 mg/mL) was prepared in 5 mL water with 0.5% sodium carboxyl methyl cellulose for oral administration. For iv administration, 7.5 mg IMB-T130 was dissolved in 0.075 mL N-methyl pyrrolidone, and 0.6 mL of PEG400 and 0.825 mL of 20% hydroxypropyl-β-cyclodextrin (aq) were added. After vortexing for 5 min, the 5 mg/mL IMB-T130 formulation was prepared. Rats were dosed at 1 mL/kg by iv injection and at 5 mL/kg by oral gavage at 0 h. A 0.2 mL blood sample was drawn from the jugular vein at 5, 15, and 30 min, and 1, 2, 4, 6, 8, and 24 h. The blood samples were centrifuged (8000 rpm, 6 min) at 4 °C for plasma separation. The IMB-T130 plasma concentration was determined by liquid chromatography-mass spectrometry using an ACQUITY UPLC BEH C18 column (Waters; 1.7 µm, 2.1 × 50 mm)[30].

[9] = target: Mycobacterium tuberculosis 3-dehydroquinate synthase (MtDHQS) (Mycobacterium tuberculosis, UniProt P9WPX9); test: DHQS enzyme assay (malachite green, free phosphoric acid); type: biochemical
Protocol: DHQS catalyse the conversion of DAHP to DHQ, and release a molecule of free phosphoric acid. The reaction was performed in a 50-µL volume with DHQS (1 μg/mL), NAD^+ (40 μg/mL), DAHP (10 μg/mL), and Tris-HCl (50 mM, pH 7.5). The solution was added to a 96-well plate and incubated for 40 min at 37 °C. Then, 100 µL of malachite green solution was added and the absorbance of the solution was measured at 620 nm[27].
We screened compounds with anti M. smegmatis activity for DHQS inhibitors. DHQS protein was pre-incubated with 0.5 μL of the test compound (10 μg/mL, dissolved in DMSO) at room temperature for 30 min in 49.5 μL of buffer (without DAHP); for the control group, 0.5 μL of DMSO was added. The reaction was initiated by adding 0.5 μL of DAHP solution followed by incubation (40 min, 37 °C). The absorbance was measured by a microplate reader. […] DHQS (1 μg/mL) was pre-incubated with increasing IMB-T130 concentrations (0.16–40 μg/mL) for 30 min at room temperature, with 1% DMSO used as a control.

M. tuberculosis = settings: cited from earlier work
DHQS [10] = target: T1, DHQS; test: SPR interaction between DHQS and IMB-T130 (NTA sensor chip); type: binding; settings: 1.875–30 μM IMB-T130
Protocol: Surface plasmon resonance (SPR) could detect interactions between compounds and proteins. DHQS protein is unstable under acidic conditions, so the combination of IMB-T130 and DHQS was detected using nitrilotriacetic acid (NTA) sensor chip. The chips were coated with […] to capture the His-tagged protein and then exposed to a concentration gradient (1.875–30 μM) of IMB-T130. The response units were determined by SPR[16],[17].
An SPR experiment was performed to examine the interaction between DHQS and IMB-T130. Because the protein was unstable under acidic conditions, CM5 sensor chips were not suitable. […] The sensor chips were first coated with Ni^2+ before capturing the purified DHQS. Next, the chip was exposed to different concentrations of IMB-T130, and the response units for five different concentrations (1.875–30 μM) of IMB-T130 were measured by SPR (BIAcore X100 instrument, GE Healthcare).

[11] = Mycolicibacterium smegmatis, read-out: MIC

T1 sequence (P9WPX9 whole entry): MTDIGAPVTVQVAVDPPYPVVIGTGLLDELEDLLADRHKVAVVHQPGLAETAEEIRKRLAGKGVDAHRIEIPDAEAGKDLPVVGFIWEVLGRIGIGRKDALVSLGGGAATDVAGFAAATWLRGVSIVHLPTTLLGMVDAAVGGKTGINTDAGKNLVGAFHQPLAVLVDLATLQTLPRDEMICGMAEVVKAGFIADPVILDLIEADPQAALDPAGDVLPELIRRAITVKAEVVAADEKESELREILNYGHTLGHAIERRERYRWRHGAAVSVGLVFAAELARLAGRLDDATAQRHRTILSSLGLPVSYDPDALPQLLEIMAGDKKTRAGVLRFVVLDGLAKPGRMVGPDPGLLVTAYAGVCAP
Chain of Mycobacterium tuberculosis 3-dehydroquinate synthase (MtDHQS) (P9WPX9 whole entry): as above

O=C(Nc1nc(-c2ccccn2)cs1)c1ccc(Cl)s1 [IMB-T130, 5-chloro-N-[4-(pyridin-2-yl)-1,3-thiazol-2-yl] thiophene-2-carboxamide]
Log10CFU ([1]; 1 μg/mL): 4.85 ± 0.06
reduction in M. tuberculosis colony forming units (CFU) ([1]; 5 μg/mL): 1.07 log10
Log10CFU ([1]; 5 μg/mL): 4.06 ± 0.03
reduction in M. tuberculosis colony forming units (CFU) ([1]; 10 μg/mL): 1.36 log10
Log10CFU ([1]; 10 μg/mL): 3.77 ± 0.10
intact mass of DHQS after incubation with compound (DHQS [2]): did not increase
MIC [3]: 0.312 µg/mL (≈ 0.97 µM)
β-turn composition of DHQS in the complex (DHQS [4]; native protein 11.2%): 12.4%
random coil composition of DHQS in the complex (DHQS [4]; native protein 13.4%): 16.8%
α-helix composition of DHQS in the complex (DHQS [4]; native protein 71.6%): 63.3%
well tolerated oral dose ([5]; administered orally): up to 500 mg/kg
adverse effects ([5]; oral, over 72 hours): No adverse effects were observed
MIC of DHQS-overexpression strain relative to control strain ([6]; DHQS-overexpression vs PMV261 control strain): eight-fold higher
MIC [6, 11]: 2.5 µg/mL (≈ 7.77 µM)
MIC [6]: 2.5 µg/mL (≈ 7.77 µM)
MIC [7]: 0.312 µg/mL (≈ 0.97 µM)
MIC [7, 11]: 0.312 µg/mL (≈ 0.97 µM)
half-life ([8]; iv 5 mg/kg): 2.13 h
half-life ([8]; po 20 mg/kg): 2.17 h
bioavailability ([8]; in vivo): 12.8%
AUC(0-t) ([8]; in vivo, iv, 5 mg/kg): 1.07 ng·h/mL
Vd ([8]; in vivo, iv, 5 mg/kg): 14.9 L/kg
clearance ([8]; in vivo, iv, 5 mg/kg): 83.2 mL/min/kg
AUC(0-t) ([8]; in vivo, po, 20 mg/kg): 0.55 ng·h/mL
Cmax ([8]; in vivo, po, 20 mg/kg): 116 ng/mL
Tmax ([8]; in vivo, po, 20 mg/kg): 1.5 h
time exposure was higher than the MIC (80 ng/mL) ([8]; in vivo, po, 20 mg/kg): about 4 hours
IC50 ([9]; IC50, DHQS 1 μg/mL, pre-incubated 30 min at room temperature): 2700 nM
remaining activity at 10 µg/mL ([9]; read-out: OD630 as % of the control (1% DMSO)): < 50%
minimum inhibitory concentration MIC (M. tuberculosis; strain not printed at the place): 0.08 µg/mL (≈ 0.249 µM)
anti-TB activity for susceptible strains (M. tuberculosis; susceptible strains): comparable anti-TB activity to rifampicin (RFP) and isoniazid (INH)
SPR response units (DHQS [10]): significant dose-dependent response

CO[C@H]1/C=C/O[C@@]2(C)Oc3c(C)c(O)c4c(O)c(c(/C=N/N5CCN(C)CC5)c(O)c4c3C2=O)NC(=O)/C(C)=C\C=C\[C@H](C)[C@H](O)[C@@H](C)[C@@H](O)[C@@H](C)[C@H](OC(C)=O)[C@@H]1C [RFP, rifampicin, reference compound]
Log10CFU ([1]; 0.5 μg/mL): 4.25 ± 0.07
Log10CFU ([1]; 2 μg/mL): 3.74 ± 0.05
reduction in M. tuberculosis colony forming units (CFU) ([1]; 5 μg/mL): 1.84 log10
Log10CFU ([1]; 5 μg/mL): 3.29 ± 0.12

[H]/N=C(/N)N[C@H]1[C@H](O)[C@@H](O)[C@H](O[C@@H]2O[C@@H](C)[C@](O)(C=O)[C@H]2O[C@@H]2O[C@@H](CO)[C@H](O)[C@@H](O)[C@@H]2NC)[C@@H](N/C(N)=N\[H])[C@@H]1O [Streptomycin, reference compound]
MIC [3]: 0.156 µg/mL (≈ 0.268 µM)
MIC [6, 11]: 0.156 µg/mL (≈ 0.268 µM)
MIC [7, 11]: 0.156 µg/mL (≈ 0.268 µM)
